Measured values taken from patent US20260092086A1, “ANTIMICROBIAL LASSO PEPTIDES” (priority 2022, published 2026).
“Also recorded” adds a separate entry of the source. Where a SMILES comes first, the peptide text is derived from it.

Key:
[1] = tested on: carboxypeptidase B and carboxypeptidase Y; test: Carboxypeptidase digestion; assay type: in vitro ADME
Experimental: Carboxypeptidase assays were done in 50 μL of 50 mM sodium acetate, pH 6.0 with 1 unit each of carboxypeptidase B and carboxypeptidase Y. Reactions were incubated overnight at 20° C. for 16 hours and then quenched with 1% formic acid. An aliquot of the reaction was then injected onto LC-MS to compare with an untreated control.

[2] = tested on: Enterobacter cloacae BIDMC120; details: strain BIDMC120; cited from earlier work
[3] = tested on: Enterobacter hormaechei BIDMC87; details: strain BIDMC87; cited from earlier work
[4] = tested on: Enterobacter hormaechei BWH39; details: strain BWH39; cited from earlier work
[5] = tested on: Enterobacter cloacae MGH3; details: strain MGH3; cited from earlier work
[6] = tested on: Enterobacter hormaechei UCI35; details: strain UCI35; cited from earlier work
[7] = tested on: Enterobacter kobei MGH178; details: strain MGH178; cited from earlier work
[8] = tested on: Enterobacter ludwigii MGH216; details: strain MGH216; cited from earlier work
[9] = tested on: Enterobacter roggenkampii MGH239; details: strain MGH239; cited from earlier work
[10] = tested on: Enterobacter asburiae MGH243; details: strain MGH243; cited from earlier work
[11] = tested on: Enterobacter cloacae UCI102; details: strain UCI102; cited from earlier work
[12] = tested on: Enterobacter asburiae UCI193; details: strain UCI193; cited from earlier work
[13] = molecular target: T1, Thermolysin (Geobacillus stearothermophilus, UniProt P43133); test: Protease digestion, thermolysin; assay type: in vitro ADME; details: 50 μM peptide, 30° C., about 1 hour, LC-MS
T1 construct: purchased Sigma-Aldrich
Experimental: Thermolysin from Geobacillus stearothermophilus (Sigma-Aldrich) was first resuspended in 50 mM Tris, 0.5 mM CaCl2). The enzyme was then added to 50 μM peptide samples at a final concentration of about 0.04 mg/mL in a buffer of 50 mM Tris, 0.5 mM CaCl2), pH 8. The reactions were then allowed to incubate at 30° C. for about 1 hour before quenching with 1% formic acid. An aliquot was then injected onto LC-MS for analysis.

[14] = Stability of variants: threaded-to-unthreaded peptide in supernatant extract by LC-MS; assay type: physicochemical; details: for Stability Relative to WT: ratio of threaded-to-unthreaded peptide in supernatant extract after purification; for threaded versus unthreaded peptide in supernatant extract (stability against unthreading): heating and carboxypeptidase assays, compared with wild-type
[15] = tested on: Enterobacter amnigenus ATCC 33072; assay type: cell-based; details: against Enterobacter amnigenus (FIG. 28, peptides at 10 μM; Y10A FIG. 34)
Experimental: Cloacaenodin was evaluated against several common laboratory strains as well as commercially acquired strains using a spot-on-lawn assay.^45 Strains were streaked out onto LB agar plates and incubated overnight at their recommended temperatures. A single colony was then used to inoculate an overnight culture in 5 mL of LB broth. After shaking at 250 rpm at the recommended temperature for each strain, 50 μL of the overnight culture was used to inoculate 5 mL of LB broth (volume ratio 1:100). These cultures were grown for a few hours until they reached the exponential phase (OD600˜0.4-0.6) before being added to 10 mL of soft M63 agar at a final cell density of 10^7 CFUs/mL, or 10^8 CFUs total in 10 mL. The M63 soft agar was composed of 2 g/L of (NH4)2SO4 (EMD MilliporeSigma), 13.6 g/L of KH2PO4 (Fisher), 40 mg/L of each of the 20 common amino acids, 0.2% glucose (Sigma), 0.00005% w/v thiamine hydrochloride (Sigma), and 0.65% w/v bacteriological-grade agar (Apex Bioresearch). […] Upon solidification, 10 μL of purified cloacaenodin in water at two-fold dilutions were then spotted onto the agar and allowed to dry. The plates were incubated overnight at the strains' recommended temperatures and analyzed the next morning for activity. The MIC is defined as the last dilution where a spot was visible.

[16] = tested on: Escherichia coli XL-1 Blue; test: Intracellular toxicity: IPTG-induced expression from plasmid lacking cloD; assay type: cell-based; details: IPTG induction
Experimental: After characterizing the structure and proteolytic resistance of cloacaenodin, cloacaenodin's inhibition of bacterial growth was tested. As a preliminary test of antimicrobial activity, a version of the expression plasmid from which the cloD gene was removed was cloned, so that the lasso peptide could not be exported by the Escherichia coli upon isopropyl β-D-1-thiogalactopyranoside (IPTG)-induced expression.
Cloacaenodin variants were constructed using site-directed mutagenesis. Mutant precursor genes were amplified from the wild-type precursor in pAK2 using mutagenic primers. Following PCR amplification of the mutated precursor gene, the purified PCR product was digested and ligated into pAK2 with the EcoRI and HindIII restriction sites. For the pMP3 plasmid for deletion of the cloD gene, the D gene was first disrupted by digestion of pAK2 with BamHI and NcoI, which removed the entire cloD gene and the C-terminal portion of the cloC gene. The digested plasmid was then ligated with an insert that restored the C-terminal portion of the cloC gene. All mutants were sequence confirmed by Genewiz (now Azenta) before use.

T1 sequence (P43133 236-551): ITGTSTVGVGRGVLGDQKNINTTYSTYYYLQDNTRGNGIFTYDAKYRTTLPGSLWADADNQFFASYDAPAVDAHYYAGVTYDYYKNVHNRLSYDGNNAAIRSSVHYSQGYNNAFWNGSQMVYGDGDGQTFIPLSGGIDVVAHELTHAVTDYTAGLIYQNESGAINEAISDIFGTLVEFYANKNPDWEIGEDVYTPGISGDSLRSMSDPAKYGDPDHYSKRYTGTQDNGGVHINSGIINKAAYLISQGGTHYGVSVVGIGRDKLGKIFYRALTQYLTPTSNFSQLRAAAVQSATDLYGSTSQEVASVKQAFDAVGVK

CC[C@H](C)[C@@H]1NC(=O)[C@H](CCCNC(=N)N)NC(=O)[C@H](CC(=O)O)NC(=O)[C@H](C(C)C)NC(=O)[C@H](CO)NC(=O)[C@H](Cc2c[nH]cn2)NC(=O)CNC(=O)CC[C@@H](C(=O)N[C@@H](Cc2ccc(O)cc2)C(=O)N[C@@H](Cc2ccccc2)C(=O)NCC(=O)N2CCC[C@H]2C(=O)N2CCC[C@H]2C(=O)NCC(=O)N[C@@H](CC(C)C)C(=O)N2CCC[C@H]2C(=O)NCC(=O)N2CCC[C@H]2C(=O)N[C@H](C(=O)N[C@@H](CC(C)C)C(=O)N[C@@H](Cc2ccccc2)C(=O)N[C@@H](Cc2ccc(O)cc2)C(=O)NCC(=O)O)C(C)C)NC(=O)[C@@H]2CCCN2C1=O [Cloacaenodin S24G] (HELM PEPTIDE1{G.H.S.V.D.R.I.P.E.Y.F.G.P.P.G.L.P.G.P.V.L.F.Y.G}$PEPTIDE1,PEPTIDE1,1:R1-9:R3$$$V2.0; C-terminus assumed; bridges inferred)
proteolysis by carboxypeptidase ([1]; pH 6): susceptibility to carboxypeptidase

C[C@@H](O)[C@H]1C(=O)N2C(C(=O)O)=C(S[C@@H]3CN[C@H](C(=O)N(C)C)C3)[C@H](C)[C@H]12 [Meropenem]
Meropenem MIC [2]: 4 µg/mL
Meropenem MIC [3]: 16 µg/mL
Meropenem MIC [4]: 2 µg/mL
Meropenem MIC [5]: ≥16 µg/mL
Meropenem MIC [6]: 4 µg/mL
Meropenem MIC [7]: ≤0.25 µg/mL
Meropenem MIC [8]: ≤0.25 µg/mL
Meropenem MIC [9]: 1 µg/mL
Meropenem MIC [10]: 16 µg/mL
Meropenem MIC [11]: 0.063 µg/mL
Meropenem MIC [12]: 23 µg/mL

CC[C@H](C)[C@@H]1NC(=O)[C@H](CCCNC(=N)N)NC(=O)[C@H](CC(=O)O)NC(=O)[C@H](C(C)C)NC(=O)[C@H](CO)NC(=O)[C@H](Cc2c[nH]cn2)NC(=O)CNC(=O)CC[C@@H](C(=O)N[C@@H](Cc2ccc(O)cc2)C(=O)N[C@@H](Cc2ccccc2)C(=O)NCC(=O)N2CCC[C@H]2C(=O)N2CCC[C@H]2C(=O)NCC(=O)N[C@@H](CC(C)C)C(=O)N2CCC[C@H]2C(=O)NCC(=O)N2CCC[C@H]2C(=O)N[C@H](C(=O)N[C@@H](CC(C)C)C(=O)N[C@@H](Cc2ccccc2)C(=O)N[C@@H](Cc2ccc(O)cc2)C(=O)N[C@@H](CO)C(=O)O)C(C)C)NC(=O)[C@@H]2CCCN2C1=O [unthreaded cloacaenodin] (HELM PEPTIDE1{G.H.S.V.D.R.I.P.E.Y.F.G.P.P.G.L.P.G.P.V.L.F.Y.S}$PEPTIDE1,PEPTIDE1,1:R1-9:R3$$$V2.0; C-terminus assumed; bridges inferred)
proteolysis by thermolysin [13]: cleavage of the unthreaded peptide both in its linear and ring segments; also recorded: can be cleaved by thermolysin

GHSVADRIPEYFGPPGLPGPVLFYS [Cloacaenodin 10-membered ring]
proteolysis by carboxypeptidase ([1]; carboxypeptidase B and Y, pH 6.0, 20° C., 16 hours, LC-MS): susceptible to degradation by carboxypeptidase
Stability Relative to WT [14]: Less

GHSVDRIAEYFGPPGLPGPVLFYS [Cloacaenodin P8A, 109]
threaded versus unthreaded peptide in supernatant extract (stability against unthreading) [14]: a dramatic decrease in the ratio of threaded-to-unthreaded peptide in the extract for a cloacaenodin P8A variant (FIG. 32) was not observed
Stability Relative to WT [14]: Comparable

GHSVDRIPEAFGPPGLPGPVLFYS [Cloacaenodin Y10A, 118]
Bioactivity Relative to WT [15]: Much less
intracellular toxicity (growth of E. coli on IPTG without CloD) [16]: not toxic intracellularly
intracellular toxicity (growth of E. coli on IPTG without CloD) ([16]; listed as Y10A): cells could still grow

GHSVDRIPEYFGPPGLPGPVLFYA [Cloacaenodin S24A, 113]
Bioactivity Relative to WT [15]: Comparable

GHSVDRIPEYFGPPGLPGPVLFYC [Cloacaenodin S24C, 117]
Bioactivity Relative to WT [15]: Less

GHSVDRIPEYFGPPGLPGPVLFYT [Cloacaenodin S24T, 116]
Bioactivity Relative to WT [15]: Less

GHSVDRIPEYFGPPGLPGPVLFYY [Cloacaenodin S24Y, 114]
Bioactivity Relative to WT [15]: Comparable

GHSVDRIPEYFGPPGLPGPVLWYS [Cloacaenodin F22W]
Bioactivity Relative to WT [15]: Comparable
threaded versus unthreaded peptide in supernatant extract (stability against unthreading) [14]: comparable levels of unthreaded peptide
Stability Relative to WT [14]: Comparable
